From patent US12643881B2, “Bicyclic amine CDK12 inhibitors” (Incyte Corporation, priority 2021, dated 2026)

Target: T1, CDK12 complexed with Cyclin K (Homo sapiens, UniProt Q9NYV4)
T1 construct: GST (N)
Test: CDK Enzymatic Assays (HTRF, LANCE Ultra kinase assay), Example A1
Type: biochemical
Settings: enzyme pre-incubated with compounds for 60 minutes prior to addition of ATP (1 mM final) and Ulight-peptide; reaction 60-90 minutes at room temperature
Source text: Example A1. CDK Enzymatic Assays
The following activity of the CDK enzymes in complex with their respective cyclins we assayed: CDK1 complexed with Cyclin B1; CDK2 complexed with Cyclin E1; CDK4 complexed with Cyclin D1; CDK6 complexed with Cyclin D1; CDK6 complexed with Cyclin D3; CDK9 complexed with Cyclin T1; CDK7 complexed with Cyclin H/MAT1; CDK2 complexed with Cyclin A2; CDK5 complexed with p35; CDK12 complexed with Cyclin K; CDK13 complexed with Cyclin K. These in vitro enzyme activity are assayed using homogeneous time-resolved energy transfer (HTRF), which measures phosphorylation of a peptide substrate. The LANCER Ultra kinase assay (PerkinElmer) uses a ULight™-labeled EIF4E-binding protein 1 (THR37/46) peptide (DYSTTPGGTLFSTTPGTRI (SEQ ID NO: 1)) substrate and a Europium-labeled anti-phospho-4E-BP1 antibody (CDK2, CDK1, CDK4, CDK6, CDK9, CDK12, CDK13) or ULight™-labeled Myelin Basic Protein peptide (VTPRTPPP (SEQ ID NO: 2)) substrate and a Europium-labeled anti-phospho-MBP antibody (CDK7). Each CDK enzyme activity assays utilized human CDK co-expressed as N-terminal GST-tagged protein with its full length cyclin partner using a baculovirus expression system.
Enzyme was pre-incubated with compounds for 30 minutes (CDK1,2,4,6,9) or 60 minutes (CDK7, CDK12, CDK13) prior to addition of ATP and Ulight-peptide (1 mM and 50 nM final, respectively), in assay buffer containing 50 mM HEPES pH 7.5, 1 mM EGTA, 10 mM MgCl2, 2 mM DTT, 0.05 mg/mL BSA, and 0.01% Tween 20. The reaction was then incubated for 60-90 minutes at room temperature. The reactions were stopped by the addition of EDTA and Europium labeled antibody, for a final concentration of 15 mM and 1.0-1.5 nM, respectively. HTRF signals were read after 15-120 minutes. A ratio of fluorescence transferred to the labeled substrate (665 nm) relative to fluorescence of the Europium donor (620 nm) represents the extent of phosphorylation. Ratios for treated wells were normalized to DMSO only (100% activity) and no enzyme (0% activity) controls. Normalized data was analyzed using a three or four parameter dose response curve to determine IC50 for each compound and are shown in Table A. Control reference inhibitors were included on each plate.

T1 sequence (Q9NYV4 whole entry): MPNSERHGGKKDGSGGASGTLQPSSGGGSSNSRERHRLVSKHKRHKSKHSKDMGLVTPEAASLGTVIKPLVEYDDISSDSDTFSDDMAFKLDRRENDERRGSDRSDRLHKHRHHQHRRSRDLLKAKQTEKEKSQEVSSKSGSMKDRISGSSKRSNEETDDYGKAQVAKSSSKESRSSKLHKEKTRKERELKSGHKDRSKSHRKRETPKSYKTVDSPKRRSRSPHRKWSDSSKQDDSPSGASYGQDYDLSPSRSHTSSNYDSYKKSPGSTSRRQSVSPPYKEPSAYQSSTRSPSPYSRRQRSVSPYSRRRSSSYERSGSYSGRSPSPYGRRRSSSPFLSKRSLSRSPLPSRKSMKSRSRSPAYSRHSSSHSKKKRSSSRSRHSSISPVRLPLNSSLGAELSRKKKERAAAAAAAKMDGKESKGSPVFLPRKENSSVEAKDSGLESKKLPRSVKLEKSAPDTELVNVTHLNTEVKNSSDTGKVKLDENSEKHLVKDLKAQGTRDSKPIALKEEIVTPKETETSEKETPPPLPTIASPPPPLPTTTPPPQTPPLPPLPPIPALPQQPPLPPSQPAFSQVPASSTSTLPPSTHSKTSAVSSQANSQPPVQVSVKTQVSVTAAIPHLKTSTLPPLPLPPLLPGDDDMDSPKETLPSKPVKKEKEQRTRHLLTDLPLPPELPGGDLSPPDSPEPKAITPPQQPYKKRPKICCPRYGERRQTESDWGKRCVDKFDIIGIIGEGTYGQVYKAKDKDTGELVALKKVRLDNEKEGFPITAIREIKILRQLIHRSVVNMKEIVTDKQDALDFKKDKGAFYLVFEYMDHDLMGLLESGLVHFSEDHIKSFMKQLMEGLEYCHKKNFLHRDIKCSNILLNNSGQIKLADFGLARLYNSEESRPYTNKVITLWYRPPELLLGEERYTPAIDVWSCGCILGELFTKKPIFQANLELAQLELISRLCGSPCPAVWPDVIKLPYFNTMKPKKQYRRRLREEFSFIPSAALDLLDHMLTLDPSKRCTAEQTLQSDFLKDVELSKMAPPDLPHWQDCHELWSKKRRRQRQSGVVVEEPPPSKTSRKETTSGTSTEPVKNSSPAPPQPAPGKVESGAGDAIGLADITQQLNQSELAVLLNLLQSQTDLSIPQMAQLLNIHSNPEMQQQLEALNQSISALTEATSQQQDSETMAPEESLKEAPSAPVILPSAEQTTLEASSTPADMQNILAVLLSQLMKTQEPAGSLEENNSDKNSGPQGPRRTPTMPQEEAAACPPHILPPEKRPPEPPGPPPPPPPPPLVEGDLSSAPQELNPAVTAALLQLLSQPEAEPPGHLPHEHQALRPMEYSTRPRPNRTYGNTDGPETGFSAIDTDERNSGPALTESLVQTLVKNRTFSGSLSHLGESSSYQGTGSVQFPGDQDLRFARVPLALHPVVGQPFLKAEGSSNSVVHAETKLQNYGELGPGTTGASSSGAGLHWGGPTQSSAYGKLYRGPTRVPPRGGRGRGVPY
T1 sequence (O75909 whole entry partner): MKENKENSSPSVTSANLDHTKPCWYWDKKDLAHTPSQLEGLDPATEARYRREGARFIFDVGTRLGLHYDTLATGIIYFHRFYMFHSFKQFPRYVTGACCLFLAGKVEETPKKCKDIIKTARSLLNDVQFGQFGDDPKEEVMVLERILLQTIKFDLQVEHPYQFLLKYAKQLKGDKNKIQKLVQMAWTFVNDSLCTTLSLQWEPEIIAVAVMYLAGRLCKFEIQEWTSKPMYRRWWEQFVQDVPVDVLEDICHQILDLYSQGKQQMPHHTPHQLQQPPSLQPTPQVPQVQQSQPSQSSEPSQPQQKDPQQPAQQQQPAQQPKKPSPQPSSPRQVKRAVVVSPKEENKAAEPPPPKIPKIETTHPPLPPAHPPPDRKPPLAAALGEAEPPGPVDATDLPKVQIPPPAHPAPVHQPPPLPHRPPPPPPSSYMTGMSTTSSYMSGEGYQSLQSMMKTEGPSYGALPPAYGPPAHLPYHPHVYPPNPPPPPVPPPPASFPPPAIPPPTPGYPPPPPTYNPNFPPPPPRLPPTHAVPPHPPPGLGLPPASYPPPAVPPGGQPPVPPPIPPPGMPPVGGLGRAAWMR

| IC50 | Compound |
| --- | --- |
| < 50 nM | C=CC(=O)Nc1cc2nc(N3C[C@H](F)C[C@@H](Nc4ncc(C(F)(F)F)cn4)C3)n(C)c2cc1C1CC1 [Example 95, N-(6-Cyclopropyl-2-((3R,5R)-3-fluoro-5-((5-(trifluoromethyl)pyrimidin-2-yl)amino)piperidin-1-yl)-1-methyl-1H-benzo[d]imidazol-5-yl)acrylamide] |
| < 50 nM | C=CC(=O)Nc1ccc2nc(N3CCC[C@@H](Nc4ncc(C#N)c(OC)n4)C3)sc2c1 [Example 46, (R)—N-(2-(3-((5-Cyano-4-methoxypyrimidin-2-yl)amino)piperidin-1-yl)benzo[d]thiazol-6-yl)acrylamide] |
| < 50 nM | C=CC(=O)Nc1ccc2c(c1)C(=O)N([C@H]1CCC[C@@H](Nc3ncc(Br)c(C(F)(F)F)n3)C1)C2 [Example 75, N-(2-((1S,3R)-3-((5-Bromo-4-(trifluoromethyl)pyrimidin-2-yl)amino)cyclohexyl)-3-oxoisoindolin-5-yl)acrylamide] |
| < 50 nM | C=CC(=O)Nc1ccc2c(c1)C(=O)N([C@H]1CCC[C@@H](Nc3ncc(Cl)c(OC)n3)C1)C2 [Example 81, N-(2-((1S,3R)-3-((5-Chloro-4-methoxypyrimidin-2-yl)amino)cyclohexyl)-3-oxoisoindolin-5-yl)acrylamide] |
| < 50 nM | C=CC(=O)Nc1ccc2nc(N3CC[C@@H](Nc4ncc(C#N)c(OC)n4)C3)nn2c1 [Example 45, (R)—N-(2-(3-((5-Cyano-4-methoxypyrimidin-2-yl)amino)pyrrolidin-1-yl)-[1,2,4]triazolo[1,5-a]pyridin-6-yl)acrylamide] |
| < 50 nM | C=CC(=O)Nc1cccc2c(N3CCC[C@@H](Nc4ncc(C#N)c(OC)n4)C3)noc12 [Example 28, (R)—N-(3-(3-((5-Cyano-4-methoxypyrimidin-2-yl)amino)piperidin-1-yl)benzo[d]isoxazol-7-yl)acrylamide] |
| 50 to 500 nM | C=C(F)C(=O)Nc1ccc2c(c1)nc([C@H]1CCC[C@@H](Nc3ncc(C#N)c(OC)n3)C1)n2C [Example 53, N-(2-((1S,3R)-3-((5-Cyano-4-methoxypyrimidin-2-yl)amino)cyclohexyl)-1-methyl-1H-benzo[d]imidazol-5-yl)-2-fluoroacrylamide] |
| < 50 nM | C=CC(=O)N(C)c1ccc2c(c1)C(=O)N([C@H]1CCC[C@@H](Nc3ncc(C#N)c(OC)n3)C1)C2 [Example 65, N-(2-((1S,3R)-3-((5-Cyano-4-methoxypyrimidin-2-yl)amino)cyclohexyl)-3-oxoisoindolin-5-yl)-N-methylacrylamide] |
| < 50 nM | C=CC(=O)Nc1cccc2c1cnn2[C@H]1CCC[C@@H](Nc2ncc(C#N)c(OC)n2)C1 [Example 24, N-(1-((1S,3R)-3-((5-Cyano-4-methoxypyrimidin-2-yl)amino)cyclohexyl)-1H-indazol-4-yl)acrylamide] |
| < 50 nM | COc1nc(N[C@@H]2CCCN(c3cc4c(cn3)c(NC(=O)C(C)Br)nn4C)C2)ncc1C#N (stereo partly drawn) [Example 32, 2-Bromo-N-(6-((R)-3-((5-cyano-4-methoxypyrimidin-2-yl)amino)piperidin-1-yl)-1-methyl-1H-pyrazolo[4,3-c]pyridin-3-yl)propanamide] |
| 50 to 500 nM | C=CC(=O)Nc1nn(C)c2c(N3CC[C@@H](Nc4ncc(C#N)cn4)C3)cccc12 [Example 20, (R)—N-(7-(3-((5-Cyanopyrimidin-2-yl)amino)pyrrolidin-1-yl)-1-methyl-1H-indazol-3-yl)acrylamide] |
| 50 to 500 nM | C=CC(=O)Nc1nn(C)c2cc(N3CC[C@@H](Nc4ncc(C#N)c(OC)n4)C3)ccc12 [Example 21, (R)—N-(6-(3-((5-Cyano-4-methoxypyrimidin-2-yl)amino)pyrrolidin-1-yl)-1-methyl-1H-indazol-3-yl)acrylamide] |
| < 50 nM | C=CC(=O)Nc1ccc2c(c1)C(=O)N([C@H]1CCC[C@@H](Nc3ncc(C#N)c(OC)n3)C1)C2 [Example 83, N-(2-((1S,3R)-3-((5-Cyano-4-methoxypyrimidin-2-yl)amino)cyclohexyl)-3-oxoisoindolin-5-yl)acrylamide] |
| < 50 nM | C=CC(=O)Nc1ccc2c(c1)C(=O)N([C@H]1CCC[C@@H](Nc3ncc(Br)cn3)C1)C2 [Example 68, N-(2-((1S,3R)-3-((5-Bromopyrimidin-2-yl)amino)cyclohexyl)-3-oxoisoindolin-5-yl)acrylamide] |
| < 50 nM | C=CC(=O)Nc1ccc2c(c1)C(=O)N([C@H]1CCC[C@@H](Nc3ncc(C(F)(F)F)c(NC)n3)C1)C2 [Example 78, N-(2-((1S,3R)-3-((4-(Methylamino)-5-(trifluoromethyl)pyrimidin-2-yl)amino)cyclohexyl)-3-oxoisoindolin-5-yl)acrylamide] |
| < 50 nM | C=CC(=O)Nc1ccc2c(c1)nc(N1CCC(F)(F)[C@@H](Nc3ncc(C(F)(F)F)cn3)C1)n2C [Example 92, (S)—N-(2-(4,4-Difluoro-3-((5-(trifluoromethyl)pyrimidin-2-yl)amino)piperidin-1-yl)-1-methyl-1H-benzo[d]imidazol-5-yl)acrylamide] |
| < 50 nM | C=CC(=O)Nc1c(Br)cc2c(nc(N3CCC[C@@H](Nc4ncc(C(F)(F)F)cn4)C3)n2C)c1C [Example 103, (R)—N-(6-Bromo-1,4-dimethyl-2-(3-((5-(trifluoromethyl)pyrimidin-2-yl)amino)piperidin-1-yl)-1H-benzo[d]imidazol-5-yl)acrylamide] |
| < 50 nM | C=CC(=O)Nc1ccc2c(c1)C(=O)N([C@H]1CCC[C@@H](Nc3ncc(OC(F)F)cn3)C1)C2 [Example 6, N-(2-((1S,3R)-3-((5-(Difluoromethoxy)pyrimidin-2-yl)amino)cyclohexyl)-3-oxoisoindolin-5-yl)acrylamide] |
| < 50 nM | C=C(Cl)C(=O)Nc1ccc2c(c1)nc([C@H]1CCC[C@@H](Nc3ncc(C#N)c(OC)n3)C1)n2C [Example 80, 2-Chloro-N-(2-((1S,3R)-3-((5-cyano-4-methoxypyrimidin-2-yl)amino)cyclohexyl)-1-methyl-1H-benzo[d]imidazol-5-yl)acrylamide] |
| < 50 nM | C=CC(=O)Nc1ccc2c(c1)nc([C@H]1CCC[C@@H](Nc3ncc(C#N)c(OC)n3)C1)n2C [Example 73, N-(2-((1S,3R)-3-((5-Cyano-4-methoxypyrimidin-2-yl)amino)cyclohexyl)-1-methyl-1H-benzo[d]imidazol-5-yl)acrylamide] |
| < 50 nM | C=CC(=O)Nc1ccc2c(c1)C(=O)N([C@H]1CCC[C@@H](Nc3ncc(CC)cn3)C1)C2 [Example 10, N-(2-((1S,3R)-3-((5-Ethylpyrimidin-2-yl)amino)cyclohexyl)-3-oxoisoindolin-5-yl)acrylamide] |
| < 50 nM | C=CC(=O)Nc1ccc2c(c1)C(=O)N([C@H]1CCC[C@@H](Nc3cc(C(F)(F)F)c(C#N)cn3)C1)C2 [Example 18, N-(2-((1S,3R)-3-((5-Cyano-4-(trifluoromethyl)pyridin-2-yl)amino)cyclohexyl)-3-oxoisoindolin-5-yl)acrylamide] |
| > 500 nM | C=CC(=O)Nc1ccc2c(ccn2[C@H]2CCC[C@@H](Nc3ncc(C#N)c(OC)n3)C2)c1 [Example 26, N-(1-((1S,3R)-3-((5-Cyano-4-methoxypyrimidin-2-yl)amino)cyclohexyl)-1H-indol-5-yl)acrylamide] |
| < 50 nM | CCC(Br)C(=O)Nc1nn(C)c2cc(N3CCC[C@@H](Nc4ncc(C#N)c(OC)n4)C3)ncc12 (stereo partly drawn) [Example 31, 2-Bromo-N-(6-((R)-3-((5-cyano-4-methoxypyrimidin-2-yl)amino)piperidin-1-yl)-1-methyl-1H-pyrazolo[4,3-c]pyridin-3-yl)butanamide] |
| < 50 nM | C=CC(=O)Nc1ccc2c(c1)C(=O)N([C@H]1CCC[C@@H](Nc3ncc(C(F)(F)F)cn3)C1)C2 [Example 85, N-(3-Oxo-2-((1S,3R)-3-((5-(trifluoromethyl)pyrimidin-2-yl)amino)cyclohexyl)isoindolin-5-yl)acrylamide] |
| < 50 nM | C=CC(=O)Nc1nn(C)c2cc(N3CC[C@@H](Nc4ncc(C#N)c(OC)n4)C3)ncc12 [Example 2, (R)—N-(6-(3-((5-Cyano-4-methoxypyrimidin-2-yl)amino)pyrrolidin-1-yl)-1-methyl-1H-pyrazolo[4,3-c]pyridin-3-yl)acrylamide] |
| < 50 nM | C=CC(=O)Nc1nn(C)c2cc(N3CCC[C@@H](Nc4ncc(C#N)c(OC)n4)C3)ncc12 [Example 1, (R)—N-(6-(3-((5-Cyano-4-methoxypyrimidin-2-yl)amino)piperidin-1-yl)-1-methyl-1H-pyrazolo[4,3-c]pyridin-3-yl)acrylamide] |
